According to patent publication US20230149420A1, “ANTI-INFLAMMATORY IMMUNOENHANCER” (SCENT SCIENCE INTERNATIONAL INC., priority 2020, published 2023):

How the values were obtained:
[1] = tested on: lymphocytes in the peripheral blood; assay: number of lymphocytes in peripheral blood, Siemens Advia 120 (Example 9); assay type: in vivo, C57/BL6 mice; conditions: 200 μl of 1% solution i.p., blood 16 hr later, vs saline
Experimental: About 3-month-old C57/BL6 mice were intraperitoneally injected with 200 μl of saline (control) or 1% solution of respective compounds (dissolved in saline). Blood was collected 16 hr later, and the number of lymphocytes in the peripheral blood was measured using Siemens Advia 120.

[2] = tested on: basophils in the peripheral blood; assay: number of basophils in peripheral blood, Siemens Advia 120 (Example 8); assay type: in vivo, C57/BL6 mice; conditions: 200 μl of 1% solution i.p., blood 16 hr later, vs saline
Experimental: About 3-month-old C57/BL6 mice were intraperitoneally injected with 200 μl of saline (control) or 1% solution of respective compounds (dissolved in saline). Blood was collected 16 hr later, and the number of basophils in the peripheral blood was measured using Siemens Advia 120.

[3] = tested on: monocytes in the peripheral blood; assay: number of monocytes in peripheral blood, Siemens Advia 120 (Examples 6, 7); assay type: in vivo, C57/BL6 mice; conditions: 200 μl of 1% solution i.p., blood 16 hr later, vs saline
Experimental: About 3-month-old C57/BL6 mice were intraperitoneally injected with 200 μl of saline (control) or 1% solution of respective compounds (dissolved in saline). Blood was collected 16 hr later, and the number of monocytes in the peripheral blood was measured using Siemens Advia 120.
About 3-month-old C57/BL6 mice were intraperitoneally injected with 200 μl of saline (control) or 1% allyl isothiocyanate solution (dissolved in saline). Blood was collected 16 hr later, and the number of monocytes in the peripheral blood was measured using Siemens Advia 120.

[4] = tested on: monocytes in the whole blood cells; assay: ratio of monocytes in whole blood cells, Siemens Advia 120 (Examples 10, 11); assay type: in vivo, C57/BL6 mice; conditions: 200 μl of 1% solution i.p., blood 16 hr later, vs saline
Experimental: About 3-month-old C57/BL6 mice were intraperitoneally injected with 200 μl of saline (control) or 1% solution of respective compounds (dissolved in saline). Blood was collected 16 hr later, and the ratio of monocytes in the whole blood cells was measured using Siemens Advia 120.
About 3-month-old C57/BL6 mice were intraperitoneally injected with 200 μl of saline (control) or 1% allyl isothiocyanate solution (dissolved in saline). Blood was collected 16 hr later, and the ratio of monocytes in the whole blood cells was measured using Siemens Advia 120.

[5] = blood stress hormone (Corticosterone) after 2MT stimulation; assay type: in vivo
[6] = tested on: neutrophils in the whole blood cells; assay: ratio of neutrophils in whole blood cells, Siemens Advia 120 (Examples 12, 13); assay type: in vivo, C57/BL6 mice; conditions: 200 μl of 1% solution i.p., blood 16 hr later, vs saline
Experimental: About 3-month-old C57/BL6 mice were intraperitoneally injected with 200 μl of saline (control) or 1% solution of respective compounds (dissolved in saline). Blood was collected 16 hr later, and the ratio of neutrophils in the whole blood cells was measured using Siemens Advia 120.

[7] = tested on: neutrophils in the peripheral blood; assay: flow cytometry of neutrophils in peripheral blood, 2MT i.p./odor, corticosterone (Example 3); assay type: in vivo, C57/BL6 mice
Experimental: (§1) About 3-month-old C57/BL6 mice were intraperitoneally administered with 200 μl of saline (control) or 1% 2MT solution (dissolved in saline). Blood was collected 16 hr later, and the number of various leukocytes in the peripheral blood was measured by a flow cytometry method by peroxidase staining and a two-angle laser flow cytometry method. The ratios of neutrophils and monocytes in the peripheral blood under respective conditions that were clarified by the measurement are shown.

[8] = tested on: peripheral blood mononuclear cells (PBMC); assay: scRNAseq classification of PBMC after intraperitoneal 2MT (Example 1); assay type: in vivo, C57/BL6 mice; conditions: 200 μl of 1% 2MT solution i.p., blood 16 hr later
Experimental: (§2) About 3-month-old C57/BL6 mice were intraperitoneally administered with 200 μl of saline (control) or 1% 2MT solution (dissolved in saline). Blood was collected 16 hr later, and peripheral blood mononuclear cells (PBMC) were separated using Ficoll Paque PREMIUM 1.084 (GE Healthcare). A single cell RNA cDNA library was prepared from the separated cells by using the 10× Chromium preparation system, Chromium Single Cell 3′ Library & Gel Bead Kit v3, and sequencing was performed using the illumina HiSeq. The obtained scRNAseq data was analyzed according to the method shown in Non-Patent Literatures 4 and 5. The results of clustering using the gene expression of each cell as an index were visualized by tSNE, and the results are shown in FIG. 1A-C.

[9] = tested on: monocytes in the peripheral blood; assay: flow cytometry of monocytes in peripheral blood, 2MT i.p./odor, corticosterone (Example 3); assay type: in vivo, C57/BL6 mice
Experimental: as §1

[10] = tested on: neutrophils in the peripheral blood; assay: number of neutrophils in peripheral blood, Siemens Advia 120 (Examples 4, 5); assay type: in vivo, C57/BL6 mice; conditions: 200 μl of 1% solution i.p., blood 16 hr later, vs saline
Experimental: About 3-month-old C57/BL6 mice were intraperitoneally injected with 200 μl of saline (control) or 1% solution of respective compounds (dissolved in saline). Blood was collected 16 hr later, and the number of neutrophils in the peripheral blood was measured using Siemens Advia 120.

[11] = tested on: peripheral blood mononuclear cells (PBMC); assay: scRNAseq gene expression changes in PBMC cell clusters, control vs 2MT (Example 2); assay type: in vivo, C57/BL6 mice; conditions: 2MT i.p. vs control, 16 hr
Experimental: as §2, with “1A-C. […] Based on the data of scRNAseq performed in Example 1, the comparison results of the changes in the expression of each gene in the cells present in each cluster between the control conditions and the 2MT administration conditions are shown in FIG. 2. The genes whose expression changed by 2MT stimulation are shown on the top of the table, and the functional categories of the genes are shown above them. The numbers in the table indicate gene expression levels, and the density of shading indicates the degree of increase in gene expression.” for “1A-C.”

[12] = tested on: lymphocytes in the whole blood cells; assay: ratio of lymphocytes in whole blood cells, Siemens Advia 120 (Example 15); assay type: in vivo, C57/BL6 mice; conditions: 1% solution i.p., blood 16 hr later, vs saline
Experimental: About 3-month-old C57/BL6 mice were intraperitoneally injected with […] saline (control) or 1% solution of respective compounds (dissolved in saline). Blood was collected 16 hr later, and the ratio of lymphocytes in the whole blood cells was measured using Siemens Advia 120.

[13] = tested on: basophils in the whole blood cells; assay: ratio of basophils in whole blood cells, Siemens Advia 120 (Example 14); assay type: in vivo, C57/BL6 mice; conditions: 200 μl of 1% solution i.p., blood 16 hr later, vs saline
Experimental: About 3-month-old C57/BL6 mice were intraperitoneally injected with 200 μl of saline (control) or 1% solution of respective compounds (dissolved in saline). Blood was collected 16 hr later, and the ratio of basophils in the whole blood cells was measured using Siemens Advia 120.

[14] = intraperitoneal injection vs saline i.p., blood 16 hr later

Compound | number of lymphocytes in the peripheral blood [1] | number of basophils in the peripheral blood [2] | number of monocytes in the peripheral blood [3] | ratio of monocytes in the whole blood cells [4] | ratio of neutrophils in the whole blood cells [6] | neutrophils in the peripheral blood (number) [10] | also measured
Cc1cccnc1C [2,3-dimethylpyridine] | increases |  |  |  |  |  | 
CC1OCCC1S (stereo not drawn) [2-Methyl-3-tetrahydrofuranthiol] |  | increases | increase | increases |  |  | 
CC1=NCCS1 [2-Methyl-2-thiazoline] |  |  | increase | increases | increases | increase | blood stress hormone (Corticosterone) [5]: increases; number of neutrophils [7, 14]: increased; number of neutrophils ([7]; odor stimulation vs no odor): increased; numbers of monocytes (Mono 1, Mono 2) and dendritic cells (DC) ([8]; vs saline): drastically increases; dendritic cells in PBMC ([8]; control 0.83%): 2.2%; percentage of monocytes in PBMC ([8]; control 3.7%): 23.7%; number of monocytes [9, 14]: increased; number of monocytes ([9]; odor stimulation vs no odor): increased; expression levels of Ccr1, Ccr2, Ccr12, and Cxc12 (genes that promote blood cell migration) [11]: increased; expression levels of Lyz2, F13a1, Cd14, Chil3, and Hp (biological defense response) [11]: increased; expression levels of Nfkbia, Nfkbiz, and Socs3 (suppressors of NF-κB and JAK-STAT pathways) [11]: increased
Cc1ccc(C)s1 [2,5-Dimethylthiophene] | increases | increases |  |  |  | increase | 
CCC1CSC(C)=N1 (stereo not drawn) [4-Ethyl-2-methyl-thiazoline] |  |  |  | increases | increases | increase | ratio of lymphocytes in the whole blood cells [12]: increases
(−)-Ambroxide | increases |  |  |  |  |  | 
O=S1(=O)CCN(c2ccccc2)CC1 [4-Phenyl-thiomorpholine-1,1-dioxide] | increases |  | increase |  |  |  | 
C1COCCN1 [Morpholine] | increases |  | increase |  |  | increase | 
COc1ccc2ncccc2c1 [6-Methoxyquinoline] |  | increases | increase | increases | increases | increase | ratio of basophils in the whole blood cells [13]: increases
C[C@]12C[C@H](O)[C@H]3[C@@H](CCC4=CC(=O)CC[C@@]43C)[C@@H]1CC[C@@H]2C(=O)CO [Corticosterone, reference compound] |  |  |  |  |  |  | number of neutrophils [7, 14]: decreased; number of monocytes [9, 14]: did not increase significantly
CC(=O)c1ncc(C)nc1C [2-Acetyl-3,5-dimethy pyrazine] |  | increases | increase |  |  |  | 
Cc1oc2ccccc2c1C [2,3-Dimethylbenzofuran] |  | increases |  |  | increases |  | ratio of basophils in the whole blood cells [13]: increases
CC1CCC(C)O1 (stereo not drawn) [2,5-Dimethyltetrahydrofuran] |  | increases |  | increases |  |  | ratio of basophils in the whole blood cells [13]: increases
CC(=O)c1cccc(C)n1 [2-Acetyl-6-methylpyridine] | increases |  |  |  |  |  | 
O=Cc1cncs1 [5-Formylthiazole] |  |  |  |  |  |  | ratio of lymphocytes in the whole blood cells [12]: increases
Cc1cncs1 [5-Methylthiazole] |  |  |  | increases | increases | increase | ratio of lymphocytes in the whole blood cells [12]: increases
CC(=O)c1ccc(C)o1 [2-Acetyl-5-methylfuran] |  | increases |  |  | increases |  | ratio of basophils in the whole blood cells [13]: increases
